The structures appear in SMILES notation. Converted amounts (≈) assume the structure as drawn. Read-outs that look alike come from different tables or passages of the source.

For orientation: IC50 means the concentration that inhibits the measured activity by half.

In test [1] the test system is MCF-7 human breast cancer cells. Description: XTT cytotoxicity assay (M). It counts as cell-based. The conditions noted are these: MCF7, MCF-7, 72 hours. The procedure: The XTT assay is a non-radioactive alternative for the [^51Cr] release cytotoxicity assay. XTT is a tetrazolium salt that is reduced to a formazan dye only by metabolically active, viable cells. The reduction of XTT is measured spectrophotometrically as OD490-OD650. To measure the cytotoxicity of specific compounds against cancer cells, 9×10^3 MCF-7 human breast cancer cells, obtained from the American Type Culture Collection are plated per well in 96 well plates in DMEM medium with 10% fetal bovine serum, insulin, penicillin, and streptomycin. Following overnight culture at 37° C. and 5% CO2, the compounds to be tested, dissolved in DMSO, are added to the wells in 1 μl volume at the following concentrations: 80, 40, 20, 10, 5, 2.5, 1.25, and 0.625 μg/ml in triplicate. Additional concentrations are tested if required. 1 μl of DMSO is added to triplicate wells are the vehicle control. C75 is run at 40, 20, […], and 5 μg/ml in triplicate as positive controls. After 72 hours of incubation, cells are incubated for 4 hours with the XTT reagent as per manufacturer's instructions (Cell Proliferation Kit II (XTT) Roche). Plates are read at OD490 and OD650 on a Molecular Devices SpectraMax Plus Spectrophotometer. Three wells containing the XTT reagent without cells serve as the plate blank. XTT data are reported as OD490-OD650. Averages and standard error of the mean are computed using SOFTmax Pro software (Molecular Dynamics). The IC50 for the compounds is defined as the concentration of drug leading to a 50% reduction in OD490-OD650 compared to controls. The OD490-OD650 are computed by the SOFTmax PRO software (Molecular Devices) for each compound concentration. IC50 is calculated by linear regression, plotting the FAS activity as percent of control versus drug concentrations. Linear regression, best-fit line, r^2, and 95% confidence intervals are determined using Prism Version 3.0 (Graph Pad Software).

Another test in a line: Weight loss screen. It counts as in vivo, Balb/C mice. As to conditions: 60 mg/kg intraperitoneally. The procedure:
Balb/C mice (Jackson Labs) are utilized for the initial weight loss screening. Animals are housed in temperature and 12 hour day/night cycle rooms and fed mouse chow and water ad lib. Three mice are utilized for each compound tested with vehicle controls in triplicate per experiment. For the experiments, mice are housed separately for each compound tested three mice to a cage. Compounds are diluted in DMSO at 10 mg/ml and mice are injected intraperitoneally with 60 mg/kg in approximately 100 μl of DMSO or with vehicle alone. Mice are observed and weighed daily; average weights and standard errors are computed with Excel (Microsoft). The experiment continues until treated animals reach their pretreatment weights. Select compounds are tested in animals housed in metabolic cages. Dosing of animals are identical to the screening experiments with three animals to a single metabolic cage. Animal weights, water and food consumption, and urine and feces production are measured daily.

For test [2], the system named is Pseudomonas aeruginosa (ATCC # 27853). Description: Broth microdilution MIC, P. aeruginosa. It counts as cell-based. The conditions noted are these: for MIC: Pseudomonas aeruginosa, ATCC27853. On the procedure: (§1) A broth microdilution assay is used to assess the antimicrobial activity of the compounds. […] Microorganisms tested include Staphylococcus aureus (ATCC # 29213), Enterococcus faecalis (ATCC # 29212), Pseudomonas aeruginosa (ATCC # 27853), and Escherichia coli (ATCC # 25922). The assay is performed in two growth media, Mueller Hinton Broth and Trypticase Soy Broth. A blood (Tsoy/5% sheep blood) agar plate is inoculated from frozen stocks maintained in T soy broth containing 10% glycerol and incubated overnight at 37° C. Colonies are suspended in sterile broth so that the turbidity matches the turbidity of a 0.5 McFarland standard. The inoculum is diluted 1:10 in sterile broth (Mueller Hinton or Trypticase soy) and 195 ul is dispensed per well of a 96-well plate. The compounds to be tested, dissolved in DMSO, are added to the wells in 5 ul volume at the following concentrations: 25, 12.5, 6.25, 3.125, 1.56 and 0.78 ug/ml in duplicate. Additional concentrations are tested if required. 5 ul of DMSO added to duplicate wells are the vehicle control. Serial dilutions of positive control compounds, vancomycin (E. faecalis and S. aureus) and tobramycin (E. coli and P. aeruginosa), are included in each run. After 24 hours of incubation at 37° C., plates are read at OD600 on a Molecular Devices SpectraMax Plus Spectrophotometer. Average OD600 values are computed using SOFTmax Pro Software (Molecular Devices) and MIC values are determined by linear regression analysis using Prism version 3.02 (Graph Pad Software, San Diego). The MIC is defined as the concentration of compound required to produce an OD600 reading equivalent to 10% of the vehicle control reading.

In test [3] the test system is Staphylococcus aureus (ATCC # 29213). Briefly: Broth microdilution MIC, S. aureus. Type of test: cell-based. As to conditions: for MIC: Staphylococcus aureus, ATCC29213. The procedure: as §1
Test [4] concerns Enterococcus faecalis (ATCC # 29212). Briefly: Broth microdilution MIC, E. faecalis. The conditions noted are these: for MIC: Enterococcus faecalis, ATCC29212. It counts as cell-based. On the procedure:
as §1

A further test deals with OV. Briefly: XTT cytotoxicity assay (OV). It counts as cell-based. The conditions noted are these: abbreviation not defined. On the procedure:
The XTT assay is a non-radioactive alternative for the [^51Cr] release cytotoxicity assay. XTT is a tetrazolium salt that is reduced to a formazan dye only by metabolically active, viable cells. The reduction of XTT is measured spectrophotometrically as OD490-OD650. After 72 hours of incubation, cells are incubated for 4 hours with the XTT reagent as per manufacturer's instructions (Cell Proliferation Kit II (XTT) Roche). Plates are read at OD490 and OD650 on a Molecular Devices SpectraMax Plus Spectrophotometer. Three wells containing the XTT reagent without cells serve as the plate blank. XTT data are reported as OD490-OD650. Averages and standard error of the mean are computed using SOFTmax Pro software (Molecular Dynamics). The IC50 for the compounds is defined as the concentration of drug leading to a 50% reduction in OD490-OD650 compared to controls. The OD490-OD650 are computed by the SOFTmax PRO software (Molecular Devices) for each compound concentration. IC50 is calculated by linear regression, plotting the FAS activity as percent of control versus drug concentrations. Linear regression, best-fit line, r^2, and 95% confidence intervals are determined using Prism Version 3.0 (Graph Pad Software).
In general terms: Formazan colour is commonly taken as a measure of viable cells.

Test [5] deals with Escherichia coli (ATCC # 25922). Description: Broth microdilution MIC, E. coli. The conditions noted are these: for Ecoli/MH (MIC): Mueller Hinton Broth; for Ecoli/Tsoy (MIC): Trypticase Soy Broth. Type of test: cell-based. On the procedure: as §1
In general terms: Broth dilution looks for growth in wells or tubes with falling amounts of substance.

A short description of the next test: Weight loss, DIO. Type of test: in vivo. As to conditions: 20 mg/kg.
The mark [6] stands for this setting: Mueller Hinton Broth, read-out: PSAE/MH (MIC).
Where [7] appears, read: Trypticase Soy Broth, read-out: PSAE/Tsoy (MIC).
Setting [8] is: Mueller Hinton Broth, read-out: SA/MH (MIC).
[9] abbreviates: Trypticase Soy Broth, read-out: SA/Tsoy (MIC).
Setting [10] is: Trypticase Soy Broth, read-out: EF/Tsoy (MIC).

Take `CCCCCCCCC1OC(=O)C(OCC(=O)OCC)=C1C(=O)OCC` (centres unmarked) [Compound 3]: the IC50 was determined as 26.7 ± 5.3 µg/mL (≈ 72.1 µM) in test [1] and 24.1 µg/mL (≈ 65.1 µM) with OV. In addition, the “Weight Loss” value in “Weight loss screen” (day 1, printed with + sign) is listed as 60 mg/kg: +1.8% (day 1). For the same compound, the MIC in test [2] (setting [6]) turned out to be 173 µg/mL (≈ 467 µM); in test [2] (setting [7]), 186 µg/mL (≈ 502 µM); in test [3] (setting [8]), 150 µg/mL (≈ 405 µM); in test [3] (setting [9]), 146 µg/mL (≈ 394 µM); in test [4] (Mueller Hinton Broth, read-out: EF/MH (MIC)), 100 µg/mL (≈ 270 µM); in test [4] (setting [10]), 135 µg/mL (≈ 364 µM).

Regarding `CCCCC1OC(=O)C(O)=C1C(=O)OCC` (centres unmarked) [Compound 2], the IC50 in test [1] is more than 80 µg/mL; in the test with OV, 66.1 µg/mL (≈ 290 µM). Also, the “Weight Loss” value in the test “Weight loss screen” (day 4) was 60 mg/kg: 12.3% (day 4). Besides, the MIC in test [2] (setting [6]) was 155 µg/mL (≈ 679 µM); in test [2] (setting [7]), 210 µg/mL (≈ 920 µM); in test [4] (setting [10]), 163 µg/mL (≈ 714 µM). For the same compound, the “SA/MH (MIC)” value in test [3] (Mueller Hinton Broth) is “Neg”. Further, in test [3] (Trypticase Soy Broth), the “SA/Tsoy (MIC)” value is on record as “Neg”. In test [4] (Mueller Hinton Broth), the “EF/MH (MIC)” value is on record as “Neg”. Besides, the “Ecoli/MH (MIC)” value in test [5] is recorded as “Neg”. In addition, the “Ecoli/Tsoy (MIC)” value in test [5] is “Neg”. In “Weight loss, DIO” (day 2), the “Weight Loss DIO” value was “DIO: 20 mg/kg: 3.0% (day 2)”.

Regarding `CCCCCCCCC1OC(=O)C(=O)C1C(=O)OCC` (centres unmarked) [Compound 1], the IC50 in test [1] came to 33.7 ± 14.6 µg/mL (≈ 119 µM); in the test with OV it was 18.4 ± 5.8 µg/mL (≈ 64.7 µM). Also, the “Weight Loss” value in “Weight loss screen” (day 4) is given as 60 mg/kg: 9.7% (day 4). In addition, in test [2] (Mueller Hinton Broth), the “PSAE/MH (MIC)” value was “Neg”. Further, the MIC in test [2] (setting [7]) is 103 µg/mL (≈ 362 µM); in test [3] (setting [8]), 32 µg/mL (≈ 113 µM); in test [3] (setting [9]), 25 µg/mL (≈ 87.9 µM); in test [4] (setting [10]) it was 42 µg/mL (≈ 148 µM). In test [4] (Mueller Hinton Broth), the “EF/MH (MIC)” value is on record as “Neg”. In addition, the “Ecoli/MH (MIC)” value in test [5] is reported as “Neg”. Also, the “Ecoli/Tsoy (MIC)” value in test [5] was “Neg”. Moreover, the “Weight Loss DIO” value in “Weight loss, DIO” (day 3) is recorded as “DIO: 20 mg/kg: 4.6% (day 3)”.

Consider `CCCCCCCCC1OC(=O)C(OCc2ccccc2)=C1C(=O)OCC` (centres unmarked) [Compound 5], for which the values for the IC50 (in test [1]; with OV) were more than 80 µg/mL and 33.9 µg/mL (≈ 90.5 µM), respectively.

For `CCCCCCCCC1OC(=O)C(OC(=O)OCC)=C1C(=O)OCC` (centres unmarked) [Compound 7], the figures for the half-maximal inhibitory concentration (IC50) (in test [1]; with OV) were 7.7 µg/mL (≈ 21.6 µM) and 13.8 µg/mL (≈ 38.7 µM), respectively.

Regarding `CCCCCCCCC1OC(=O)C(OC)=C1C(=O)OCC` (centres unmarked) [Compound 4], the IC50 was 25.3 ± 1.5 µg/mL (≈ 84.8 µM) in test [1] and 9.2 µg/mL (≈ 30.8 µM) in the test on OV.

As for `C=CCOC1=C(C(=O)OCC)C(CCCCCCCC)OC1=O` (centres unmarked) [Compound 6], the IC50 (in test [1]; in the test on OV) was more than 80 µg/mL in each case.

Source of the values: patent US20100029761A1, “NOVEL COMPOUNDS, PHARMACEUTICAL COMPOSITIONS CONTAINING SAME, AND METHODS OF USE FOR SAME” (priority 2005, published 2010).
